The source of these data is patent US20100260689A1, “REDUCING SHAVING FREQUENCY” (BEIERSDORF AG, priority 2007, published 2010).

The assay is described as follows: Cutting force during the shaving of human hair after 24 hours of exposure time (universal test apparatus with cutting force adapter). The following applies: products A-D in artificial sweat solution, five hair fibers cut, 90° cutting angle. Here is the method: The measurements are thereby carried out on a universal test apparatus with cutting force adapter with four friction bearings and recorded by means of TestXpert software.
Five hair fibers were cut for the measurement.
Due to the influence of the cross section of the hair fiber, a preliminary grouping of the hair fibers to be cut is indispensable, which ensures that the products to be compared were carried out on hair fibers with the same cross section so that relative results are obtained.
Five hair fibers fixed on one side are cut with the aid of a commercially available blade (single-blade razor with replaceable blade) at a constant speed. The blade is thereby clamped in an adapter specially produced for this purpose, which ensures a guidance of the blade with the aid of four friction bearings. The determination of the cutting force is carried out by maximum force detection. At the same time, the friction force of the friction bearings is recorded during each measurement.
Measurement parameters: Measurement speed: 100 mm/min • Cutting angle: 90° • Blade grind: approx. 12°
The tested products A-D (see FIG. 1) comprise an artificial sweat solution composed of […]
In a further comparative test, the cutting force on human hair was measured after 24 hours of exposure time of three preparations (FIG. 2). […]

Consider “Aluminum chlorohydrate [aluminum chlorohydrates]”, for which the “cutting force during the shaving of human hair” value is listed as “reduction of the cutting force” (FIG. 1) and “cutting force reduction” (FIG. 1, listed as ACH).
